Test results as given in patent publication US8278473B2, “Alpha, beta-unsaturated imidate compound and pesticidal composition containing the same” (Sumitomo Chemical Company, Limited, priority 2007, dated 2012).

Each compound was assayed on Haemaphysalis longicornis (assay: Test Example 10: Haemaphysalis longicornis, treated filter paper pouch). Conditions: 0.5 mg compound on filter paper 5×10 cm; non-blood sucking nymphal ticks; after 2 days.
Format: in vivo
Method: In 1 mL of acetone, 0.5 mg of any one of the present compounds 1 to 48 was dissolved, and the solution was spread uniformly on one side of a filter paper (TOYO No. 2; 5×10 cm). After dried, the filter paper was folded into two, and the sides were clipped to make a pouch. Into the pouch, tested ticks (Haemaphysalis longicornis, non-blood sucking nymphal ticks, 10 ticks in a group) were placed. The pouch was clipped and sealed. After 2 days, the number of dead ticks was counted.
Compound CC(=COc1ccc(C)cc1)C(=Nc1ccccc1)Oc1ccc(F)cc1 [Compound 199, 4-fluorophenyl 2-methyl-3-(4-methylphenyloxy)-N-phenyl-2-propenimidate] has a death rate of 100%.
CCc1cccc(OC(=Nc2ccccc2)C(C)=COc2cccc(C)c2)c1 [Compound 177, 3-ethylphenyl 2-methyl-3-(3-methylphenyloxy)-N-phenyl-2-propenimidate] showed a death rate of 100%.
Compound COc1ccccc1OC=C(C)C(=Nc1ccccc1)Oc1ccccc1 [Compound 232, phenyl 3-(2-methoxyphenyloxy)-2-methyl-N-phenyl-2-propenimidate] has a death rate of 100%.
COc1ccc(N=C(Oc2cc(C)cc(C)c2)C(C)=COc2ccc(OC)cc2)cc1 [Compound 281, 3,5-dimethylphenyl N-(4-methoxyphenyl)-3-(4-methoxyphenyloxy)-2-methyl-2-propenimidate] was tested, and the death rate was 100%.
Compound CC(=COc1cccc(C)c1)C(=Nc1ccccc1)Oc1ccccc1 [Compound 175, phenyl 2-methyl-3-(3-methylphenyloxy)-N-phenyl-2-propenimidate] has a death rate of 100%.
Compound CCOc1cccc(OC(=Nc2ccccc2)C(C)=COc2ccccc2OC)c1 [Compound 237, 3-ethoxyphenyl 3-(2-methoxyphenyloxy)-2-methyl-N-phenyl-2-propenimidate] has a death rate of 100%.
Compound CC(=COc1ccc(C)cc1)C(=Nc1ccccc1)Oc1cccc(C(F)(F)F)c1 [Compound 206, 3-(trifluoromethyl)phenyl 2-methyl-3-(4-methylphenyloxy)-N-phenyl-2-propenimidate] has a death rate of 100%.
CC(=COc1cccc(C)c1)C(=Nc1ccccc1)Oc1cc(C)cc(C)c1 [Compound 182, 3,5-dimethylphenyl 2-methyl-3-(3-methylphenyloxy)-N-phenyl-2-propenimidate] gave a death rate of 100%.
In the case of COc1cccc(OC=C(C)C(=Nc2ccccc2)Oc2ccccc2)c1 [Compound 257, phenyl 3-(3-methoxyphenyloxy)-2-methyl-N-phenyl-2-propenimidate], the death rate is reported as 100%.
Compound CC(=COc1ccc(C)cc1)C(=Nc1ccccc1)Oc1ccc(Cl)cc1 [Compound 202, 4-chlorophenyl 2-methyl-3-(4-methylphenyloxy)-N-phenyl-2-propenimidate] has a death rate of 100%.
Compound CC(=COc1ccc(C)cc1)C(=Nc1ccccc1)Oc1cccc(F)c1 [Compound 198, 3-fluorophenyl 2-methyl-3-(4-methylphenyloxy)-N-phenyl-2-propenimidate] has a death rate of 100%.
COc1ccc(N=C(Oc2ccccc2)C(C)=COc2ccccc2OC)cc1 [Compound 245, phenyl N-(4-methoxyphenyl)-3-(2-methoxyphenyloxy)-2-methyl-2-propenimidate] was tested, and the death rate was 100%.
COc1ccc(N=C(Oc2cccc(C)c2)C(C)=COc2cccc(C)c2)cc1 [Compound 189, 3-methylphenyl N-(4-methoxyphenyl)-2-methyl-3-(3-methylphenyloxy)-2-propenimidate] gave a death rate of 100%.
For CCOc1cccc(OC(=Nc2ccc(C)cc2)C(C)=COc2cccc(C)c2)c1 [Compound 186, 3-ethoxyphenyl 2-methyl-N-(4-methylphenyl)-3-(3-methylphenyloxy)-2-propenimidate], the death rate was 100%.
